Measurements as given in ChEMBL document CHEMBL5537172 (J Med Chem, 2024).
Activity calls are given as the source filed them. The calls are words filed in the database; no cut-off is given here.

Assays:
[1] = target: T1, Receptor-type tyrosine-protein kinase FLT3 (Homo sapiens, UniProt P36888); test: Inhibition of FLT3 (unknown origin); type: toxicity
T1 sequence (P36888 whole entry): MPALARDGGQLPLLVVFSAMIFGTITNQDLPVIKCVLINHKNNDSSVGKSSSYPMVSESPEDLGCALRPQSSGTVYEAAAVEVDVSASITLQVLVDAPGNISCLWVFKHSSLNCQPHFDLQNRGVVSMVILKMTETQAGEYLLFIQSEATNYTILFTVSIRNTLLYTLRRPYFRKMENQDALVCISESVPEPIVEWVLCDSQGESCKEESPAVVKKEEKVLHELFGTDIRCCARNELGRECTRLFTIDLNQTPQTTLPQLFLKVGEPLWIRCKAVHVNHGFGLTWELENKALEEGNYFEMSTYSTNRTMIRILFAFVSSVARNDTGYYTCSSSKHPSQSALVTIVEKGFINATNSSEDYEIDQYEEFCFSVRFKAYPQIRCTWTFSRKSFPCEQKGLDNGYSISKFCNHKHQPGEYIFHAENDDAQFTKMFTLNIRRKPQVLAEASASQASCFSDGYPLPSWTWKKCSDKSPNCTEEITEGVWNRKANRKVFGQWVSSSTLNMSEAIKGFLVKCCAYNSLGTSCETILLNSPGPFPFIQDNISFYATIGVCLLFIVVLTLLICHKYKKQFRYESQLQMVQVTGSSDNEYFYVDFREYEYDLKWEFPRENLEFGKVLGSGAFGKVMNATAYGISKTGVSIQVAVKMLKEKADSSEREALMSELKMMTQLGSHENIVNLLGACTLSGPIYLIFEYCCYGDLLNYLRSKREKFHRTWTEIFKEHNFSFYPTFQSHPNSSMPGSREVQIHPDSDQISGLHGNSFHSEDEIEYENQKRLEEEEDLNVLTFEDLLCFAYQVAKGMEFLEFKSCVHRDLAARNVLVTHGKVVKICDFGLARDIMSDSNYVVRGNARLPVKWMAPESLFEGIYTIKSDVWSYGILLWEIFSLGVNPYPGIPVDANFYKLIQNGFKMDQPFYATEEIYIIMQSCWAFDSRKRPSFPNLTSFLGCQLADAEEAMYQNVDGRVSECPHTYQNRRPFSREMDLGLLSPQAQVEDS

[2] = target: Glycogen synthase kinase-3 beta (Homo sapiens, UniProt P49841); test: Inhibition of GSK3beta (unknown origin); type: toxicity
Glycogen synthase kinase-3 beta, sequence (P49841 whole entry): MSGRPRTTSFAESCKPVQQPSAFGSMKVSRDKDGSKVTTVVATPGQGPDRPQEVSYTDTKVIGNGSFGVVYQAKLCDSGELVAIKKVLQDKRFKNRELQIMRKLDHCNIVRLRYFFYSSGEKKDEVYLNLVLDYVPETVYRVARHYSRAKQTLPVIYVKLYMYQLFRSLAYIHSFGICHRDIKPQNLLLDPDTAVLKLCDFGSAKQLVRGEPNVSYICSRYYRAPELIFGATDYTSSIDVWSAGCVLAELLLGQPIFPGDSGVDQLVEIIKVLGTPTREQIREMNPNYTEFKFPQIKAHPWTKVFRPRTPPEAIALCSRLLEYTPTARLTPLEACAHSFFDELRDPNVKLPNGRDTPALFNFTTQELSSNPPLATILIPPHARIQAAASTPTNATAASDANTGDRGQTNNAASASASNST

cells = settings: Homo sapiens, 92-1, 72 h
[3] = target: 5-hydroxytryptamine receptor 2B (Homo sapiens, UniProt P41595); test: Agonist activity at 5HT2B (unknown origin); type: toxicity
5-hydroxytryptamine receptor 2B, sequence (P41595 whole entry): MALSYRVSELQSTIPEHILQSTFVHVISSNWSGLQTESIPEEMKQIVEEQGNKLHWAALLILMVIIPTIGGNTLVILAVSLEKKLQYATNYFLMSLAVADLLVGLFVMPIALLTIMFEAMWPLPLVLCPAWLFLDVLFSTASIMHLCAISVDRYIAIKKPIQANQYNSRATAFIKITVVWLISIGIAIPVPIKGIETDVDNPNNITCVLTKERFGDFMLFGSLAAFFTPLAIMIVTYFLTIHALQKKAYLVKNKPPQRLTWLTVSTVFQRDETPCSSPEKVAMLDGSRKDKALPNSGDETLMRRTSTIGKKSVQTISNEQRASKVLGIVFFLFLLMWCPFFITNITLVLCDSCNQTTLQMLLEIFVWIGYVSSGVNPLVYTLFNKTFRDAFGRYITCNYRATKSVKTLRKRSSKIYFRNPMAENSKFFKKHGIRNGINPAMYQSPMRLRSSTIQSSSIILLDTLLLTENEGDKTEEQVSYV

[4] = Dissociation constant, pKa of compound; type: physicochemical
92-1 = test: Antitumor activity against human 92-1 cells xenografted in mouse assessed as tumor suppression at 100 mg/kg, qd; type: functional, organism-based
[5] = Toxicity in mouse xenografted with human 92-1 cells assessed as abdominal distention at 100 mg/kg, qd after 1 week; type: organism-based; settings: in vivo, 168 h, time 1 weeks
[6] = Toxicity in mouse xenografted with human 92-1 cells assessed as body weight loss at 100 mg/kg, qd measured upto 15 days; type: organism-based; settings: in vivo, 360 h, time < 15 day
[7] = Toxicity in mouse xenografted with human 92-1 cells assessed as enlarged GI track at 100 mg/kg, qd measured upto 15 days; type: organism-based; settings: in vivo, 360 h, time < 15 day
[8] = target: Protein kinase C alpha type (Homo sapiens, UniProt P17252); test: Inhibition of PKCalpha (unknown origin) incubated for 15 mins in presence of 33P-ATP by Topcount scintillation counting method
[9] = target: Protein kinase C theta type (Homo sapiens, UniProt Q04759); test: Inhibition of PKCtheta (unknown origin) incubated for 15 mins in presence of 33P-ATP by Topcount scintillation counting method
Protein kinase C theta type, sequence (Q04759 whole entry): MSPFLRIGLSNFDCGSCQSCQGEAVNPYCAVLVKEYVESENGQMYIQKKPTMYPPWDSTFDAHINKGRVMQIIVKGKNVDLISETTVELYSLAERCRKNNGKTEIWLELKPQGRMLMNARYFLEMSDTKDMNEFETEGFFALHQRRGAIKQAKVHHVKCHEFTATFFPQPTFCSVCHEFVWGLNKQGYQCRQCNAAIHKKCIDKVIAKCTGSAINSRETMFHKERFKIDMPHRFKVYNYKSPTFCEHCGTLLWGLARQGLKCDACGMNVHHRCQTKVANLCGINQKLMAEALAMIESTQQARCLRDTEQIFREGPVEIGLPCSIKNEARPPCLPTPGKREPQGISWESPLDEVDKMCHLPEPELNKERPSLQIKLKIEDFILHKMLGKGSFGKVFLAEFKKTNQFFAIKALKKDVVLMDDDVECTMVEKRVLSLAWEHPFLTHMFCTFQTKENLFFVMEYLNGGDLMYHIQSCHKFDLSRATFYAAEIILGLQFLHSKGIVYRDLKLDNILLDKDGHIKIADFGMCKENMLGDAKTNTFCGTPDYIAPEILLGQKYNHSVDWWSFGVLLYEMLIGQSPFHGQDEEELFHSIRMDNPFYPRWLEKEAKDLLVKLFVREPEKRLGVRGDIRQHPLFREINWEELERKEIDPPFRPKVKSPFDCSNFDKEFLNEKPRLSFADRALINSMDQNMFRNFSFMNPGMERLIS

SMILES | EC50 (cells) [nM] | IC50 [1] [nM] | IC50 [2] [nM] | EC50 [3] [nM] | further results
Nc1ncc(-c2ncccc2F)nc1C(=O)Nc1ncccc1N1CCC(N)CC1 | – | – | – | 41 | –
Nc1ncc(-c2ncccc2OC(F)(F)F)nc1C(=O)Nc1ncccc1N1CCC(N)C(F)C1 (centres undefined) | 153 | – | – | 43 | pKa [4]: 7.6
Nc1ncc(-c2cccc3[nH]ncc23)nc1C(=O)Nc1ncccc1N1CCC(N)CC1 | – | 31 | 41 | – | –
COC1CN(c2cccnc2NC(=O)c2nc(-c3ncccc3OC(F)(F)F)cnc2N)CCC1N (trans isomer) | 2800 | – | – | > 30000 | pKa [4]: 8
Nc1ncc(-c2ncccc2C(F)(F)F)nc1C(=O)Nc1ncccc1N1C[C@H]2CC[C@@H](C1)[C@@H]2N | 1390 | – | – | > 30000 | IC50 [8]: 10 nM; IC50 [9]: 3 nM; pKa [4]: 9.4
Nc1ncc(-c2ncccc2OC(F)(F)F)nc1C(=O)Nc1ncccc1N1CCC(N)C(F)(F)C1 (centres undefined) | 1740 | – | – | 2000 | IC50 [8]: 11 nM; IC50 [9]: 10 nM; pKa [4]: 6
Nc1ncc(-c2nc(N3CCOCC3)ccc2C(F)(F)F)nc1C(=O)Nc1ncccc1N1CCC(N)CC1 | – | 230 | – | 150 | –
Nc1ncc(-c2nc(N3CCC3)ccc2C(F)(F)F)nc1C(=O)Nc1ncccc1N1CCC(N)CC1 | – | 140 | 2900 | – | –
CNc1ncc(-c2ncccc2OC(F)(F)F)nc1C(=O)Nc1cnccc1N1CCC(N)CC1 | – | – | – | – | Activity [5]: Non-Toxic; Activity [6]: Non-Toxic; Activity [7]: Non-Toxic; IC50 (cells): 3700 nM
Nc1ncc(-c2ncccc2C(F)(F)F)nc1C(=O)Nc1ncccc1N1CCC(N)CC1 | – | 8700 | – | 160 | –
Nc1ncc(-c2ncnc3sccc23)nc1C(=O)Nc1ncccc1N1CCC(N)CC1 | – | 4100 | 710 | – | –
CO[C@H]1CN(c2ccncc2NC(=O)c2nc(-c3ncccc3OC(F)(F)F)cnc2N)CC[C@@H]1N | – | – | – | – | IC50 [8]: 0.2 nM; IC50 [9]: 2 nM; IC50 (cells): 140 nM

Continued, in another order:

EC50 (cells) [nM] | SMILES | IC50 [1] [nM] | IC50 [2] [nM] | EC50 [3] [nM] | further results
66 | CN(C)c1ccc(C(F)(F)F)c(-c2cnc(N)c(C(=O)Nc3ncccc3N3CCC(N)CC3)n2)n1 | 95 | 2700 | – | –
180 | Nc1ncc(-c2ncccc2OC(F)(F)F)nc1C(=O)Nc1ncccc1N1CCC(N)CC1 | 8460 | – | 200 | pKa [4]: 8.9
36 | Nc1ncc(-c2ncccc2OC(F)(F)F)nc1C(=O)Nc1cnccc1N1CCC(N)CC1 | 230 | 10 | – | Activity (92-1): Active; Activity [5]: Toxic; Activity [6]: Toxic; Activity [7]: Toxic
22 | Nc1ncc(-c2nc(N3CCOCC3)cc3ccccc23)nc1C(=O)Nc1ncccc1N1CCC(N)CC1 | – | – | 160 | –
230 | Nc1ncc(-c2ncccc2OC(F)(F)F)nc1C(=O)Nc1ccncc1N1CCC(N)CC1 | 30 | 530 | – | IC50 [8]: 0.4 nM; IC50 [9]: 1.3 nM
11 | Nc1ncc(-c2cccc3[nH]ccc23)nc1C(=O)Nc1ncccc1N1CCC(N)CC1 | 33 | 19 | 780 | –
3660 | Nc1ncc(-c2ncccc2C(F)(F)F)nc1C(=O)Nc1cccnc1N1CCC(N)CC1 | 3000 | 6900 | – | IC50 [8]: 43 nM; IC50 [9]: 69 nM
